Data on 3 compounds can be found in article PMC6958387, “Biological Evaluation of Arylsemicarbazone Derivatives as Potential Anticancer Agents” (Pharmaceuticals, 2019).

The IC50 is the concentration that gives 50% inhibition.

Where only a bound is given, the exact number is not on record here.

Assay [1] has as its target T1, CLK1 (Mus musculus, UniProt P22518).
T1 construct: made in house; host or cells: bacteria
The assay is described as follows: Kinase inhibition assay (ADP-Glo). It is filed as biochemical. Conditions: 10 µM ATP. The method, then: MmCLK1 (from Mus musculus, recombinant, expressed in bacteria) was assayed in buffer A with 0.027μg/µL of the following peptide: GRSRSRSRSRSR as substrate.
(In general: ADP-Glo turns the ADP formed in a reaction into a luminescent signal.)

In assay [2] the test system is K562, HL-60, MOLT-4, HEp-2, NCI-H292, HT-29 and MCF-7 tumor cell lines. The assay is described as follows: Cytotoxic screening against the panel of tumor cell lines (MTT). Type of assay: cell-based, human. Conditions: Homo sapiens; range over the seven tumor cell lines, 72 h; read-out: IC50 values across all tested cell lines. The method, then:
The cytotoxicity assessment was performed against three human cancer cell lines in suspension (K562, HL-60 and MOLT-4) and four adhered (HEp-2, NCI-H292, HT-29 and MCF-7).
The cells were obtained from the Cell Bank of Rio de Janeiro and maintained in the Laboratory of Cell Culture of the Department of Antibiotics of the Federal University of Pernambuco. The lines K562 (myeloblastic leukaemia), HL-60 (promyelocytic leukemia) and MOLT-4 (lymphoblastic leukemia) were cultured in RPMI 1640 medium and the lines HEp-2 (larynx carcinoma), NCI-H292 (lung carcinoma), HT-29 (colon adenocarcinoma) and MCF-7 (breast adenocarcinoma) were cultured in DMEM medium, supplemented with 10% fetal bovine serum, 2 mM glutamine, 100 U/mL penicillin and 100 μg/mL streptomycin (Gibco™ Life Technologies), at 37 °C and 5% CO2.
The evaluation of the cytotoxicity of the compounds was performed by the method of 3-(4,5-dimethyl-2-thiazolyl)-2,5-diphenyl-2H-tetrazolium bromide (MTT) (Sigma Aldrich Co., St. Louis, MO, USA). To perform the assay the cells were seeded in 96-well plates at the following concentrations: HL-60 and K562 (0.3 × 10^6 cells/mL); MOLT-4 and PBMC (10^6 cells/mL); NCI-H292, HT-29, HEp-2 e MCF-7 (10^5 cells/mL). Briefly, the compounds previously dissolved in DMSO (dimethylsulfoxide, Vetec, São Paulo, Brazil), were diluted in medium and added to each well at the desired concentrations. For the calculation of the concentration that inhibits 50% of cell growth (IC50) the compounds were serially diluted to obtain the final concentrations between 0.19–25 μg/mL. Doxorubicin was used as the standard in the concentration range between (0.078–10 μg/mL). After 72 h of contact of the cells with the compounds, it was added to each well 25 μL of MTT solution (5 mg/mL). […] To perform the reading, 100 μL of DMSO was added in each well for the dissolution of the formazan crystals. The amount of formazan was measured by reading the plate at 560 nm absorbance. The IC50 was calculated from the nonlinear regression in the Prisma 7.0 software (GraphPad, San Diego, CA, USA). […]

Assay [3] relates to HL-60 cells. Kind of assay: Mitochondrial transmembrane potential (rhodamine 123), flow cytometry. It is filed as cell-based, human. The conditions noted are these: 72 h. The protocol: In this sense, in order to evaluate if compounds 3c and 4a induce apoptosis by alterating the mitochondria transmembrane potential, this assay was performed by flow cytometry using the fluorochrome rhodamine 123, because this is able to accumulate in cells with unchanged mitochondrial transmembrane potential.
(§1) HL-60 cells (3 × 10^5) were plated in 24-well plates and treated with the compounds 3c (13 and 26 μM) and 4a (11 and 22 μM) for 72 h at 37 °C with 5% CO2. In all trials, doxorubicin was used as a positive control. After the incubation period, an aliquot of 500 μL of treated and untreated cells suspension was transferred to an Eppendorf tube and centrifuged to remove the supernatant and continue the protocol of the test. In the cell viability and annexin V assays, kits were used, ViaCount kit and guava nexin kit (Guava Technologies), respectively. The protocols performed in these tests followed the manufacturer’s instructions. For to analyze mitochondrial depolarization, rhodamine 123 fluorescent dye was used. In the assay for cell cycle analysis and DNA fragmentation propidium iodide was used. The experiments were performed on Guava EasyCyte HT (Merck-Millipore) flow cytometer, acquiring 5000 events. The data were analyzed in Guava-Soft™ software version 2.7. Three independent experiments were performed in triplicate.

The target of assay [4] is T2, AURKB (Homo sapiens, UniProt Q96GD4).
T2 construct: purchased SignalChem A31-10G; host or cells: Sf9 insect cells (baculovirus)
T2 sequence (Q96GD4 whole entry): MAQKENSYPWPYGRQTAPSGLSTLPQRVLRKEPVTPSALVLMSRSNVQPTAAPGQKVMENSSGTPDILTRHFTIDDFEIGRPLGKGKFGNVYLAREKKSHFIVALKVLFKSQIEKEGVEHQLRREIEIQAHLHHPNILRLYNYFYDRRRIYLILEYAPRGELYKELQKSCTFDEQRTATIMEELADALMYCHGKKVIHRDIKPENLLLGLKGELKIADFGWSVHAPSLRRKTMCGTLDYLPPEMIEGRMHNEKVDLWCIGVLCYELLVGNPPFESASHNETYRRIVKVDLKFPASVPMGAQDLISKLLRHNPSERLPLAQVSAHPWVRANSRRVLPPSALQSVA
Kind of assay: Kinase inhibition assay (ADP-Glo). Type of assay: biochemical. Conditions: 10 µM ATP.

The test system of assay [5] is HL-60 cells. Kind of assay: DNA fragmentation assay (sub-G1, propidium iodide). Conditions: 72 h. It is filed as cell-based, human.
Description: DNA fragmentation is initiated after chromatin condensation and depends on several variables, such as the time required for the depolarization of the mitochondria and activation of the caspase cascade. In response to DNA damage the p53 protein is activated causing cell cycle arrest in G1 [57]. At flow cytometry the apoptotic cells with fragmented DNA can be identified as the sub-G1 population, seen to the left of the G1 peak. Thus, using the fluorochrome propidium iodide and the same principle of the cell cycle test, an assay was performed to identify HL-60 cells with fragmented DNA (Figure 7).
as §1

For assay [6], the system named is HL-60 cells. Kind of assay: Annexin V-FITC/7-AAD test, flow cytometry. The conditions noted are these: for cells in initial apoptosis [Annexin V(+) and 7-AAD(−)] / cells in late apoptosis [Annexin V(+) and 7-AAD(+)] / dead cells [Annexin V(−) and 7-AAD (+)]: 72 h. It is filed as cell-based, human. The method, then: Aiming to better study the mechanism of induction of death involved in HL-60 cells after treatment with compounds 3c and 4a, a flow cytometric test was performed after double staining with annexin V-FITC/7-AAD. This assay is based on the ability of annexin V to bind with high affinity to phosphatidylserine which is translocated to the outer membrane of apoptotic cells and the 7-AAD dye binds to the DNA of cells with loss of membrane integrity. Thus, in this test it is possible to identify four distinct populations: viable cells [Annexin V(−) and 7-AAD(−)], initial apoptotic cells [Annexin V(+) and 7-AAD(−)], late apoptotic cells [Annexin V(+) and 7-AAD(+)] and dead cells [Annexin V(−) and 7-AAD (+)] [59].
as §1
On the technique in general: In flow cytometry, cells or beads pass a laser one at a time.

In assay [7] the test system is Peripheral Blood Mononuclear Cells (PBMCs). Kind of assay: MTT cytotoxicity in normal cells, 72 h. The conditions noted are these: Homo sapiens, PBMC, 72 h of incubation. It is filed as cell-based, human. The method, then:
In order to evaluate the cytotoxic potential in normal cells, all the derivatives were tested against Peripheral Blood Mononuclear Cells (PBMCs) and the most promising compounds were again compounds 3c and 4a, which offered more selectivity against the cancer cells.
Mononuclear cells were obtained from the peripheral blood of healthy volunteers by heparin tube collection and isolated by Ficoll-Histopaque gradient centrifugation. After centrifugation, the cells were harvested, washed and resuspended in RPMI 1640 medium supplemented with 20% fetal bovine serum, 2 mM glutamine, 100 U/mL penicillin and 100 μg/mL streptomycin (Gibco™ Life Technologies, Waltham, MA, USA). The phytohemagglutinin mitogen 2% was also added into the culture medium. After that, using the neubauer chamber, the cells were counted and plated in a 96-well plate at a concentration of 10^6 cells/mL and then were maintained for overnight under incubation at 37 °C and 5% CO2 [65].
The evaluation of the cytotoxicity of the compounds was performed by the method of 3-(4,5-dimethyl-2-thiazolyl)-2,5-diphenyl-2H-tetrazolium bromide (MTT) (Sigma Aldrich Co., St. Louis, MO, USA). To perform the assay the cells were seeded in 96-well plates at the following concentrations: HL-60 and K562 (0.3 × 10^6 cells/mL); MOLT-4 and PBMC (10^6 cells/mL); NCI-H292, HT-29, HEp-2 e MCF-7 (10^5 cells/mL). Briefly, the compounds previously dissolved in DMSO (dimethylsulfoxide, Vetec, São Paulo, Brazil), were diluted in medium and added to each well at the desired concentrations. For the calculation of the concentration that inhibits 50% of cell growth (IC50) the compounds were serially diluted to obtain the final concentrations between 0.19–25 μg/mL. Doxorubicin was used as the standard in the concentration range between (0.078–10 μg/mL). After 72 h of contact of the cells with the compounds, it was added to each well 25 μL of MTT solution (5 mg/mL). Plates were left for another 3 h in incubator at 37 °C and at the end of that period the supernatant was aspirated. To perform the reading, 100 μL of DMSO was added in each well for the dissolution of the formazan crystals. The amount of formazan was measured by reading the plate at 560 nm absorbance. The IC50 was calculated from the nonlinear regression in the Prisma 7.0 software (GraphPad, San Diego, CA, USA). Each sample was tested in triplicate in three independent experiments.

T1 sequence (P22518 whole entry): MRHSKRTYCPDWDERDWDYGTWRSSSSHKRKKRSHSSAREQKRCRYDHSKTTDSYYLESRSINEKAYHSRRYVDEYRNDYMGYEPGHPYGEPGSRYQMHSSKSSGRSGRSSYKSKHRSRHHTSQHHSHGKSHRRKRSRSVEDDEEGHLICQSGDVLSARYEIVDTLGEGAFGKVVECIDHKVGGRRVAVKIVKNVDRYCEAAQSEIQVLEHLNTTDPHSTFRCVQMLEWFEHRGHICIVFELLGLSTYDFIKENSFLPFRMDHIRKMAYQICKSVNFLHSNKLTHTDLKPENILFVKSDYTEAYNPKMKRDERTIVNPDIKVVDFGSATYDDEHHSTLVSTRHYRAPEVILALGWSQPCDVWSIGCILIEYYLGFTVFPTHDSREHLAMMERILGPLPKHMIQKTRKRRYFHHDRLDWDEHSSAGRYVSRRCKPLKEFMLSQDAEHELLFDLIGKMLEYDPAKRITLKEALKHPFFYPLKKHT

As for `CCCCN(N=Cc1ccc([N+](=O)[O-])o1)C(N)=O` [Compound 4a, 5-Nitro-2-(N^2-n-butyl)furfuraldehyde Semicarbazone], the IC50 in assay [1] is more than 10 µM; in assay [2], 11.4 to 37.9 µM; in assay [4], more than 10 µM; in assay [7] it was 51.2 ± 0.75 µM. The depolarized cells in assay [3] (22 μM) is recorded as 59.3%. For the same compound, the “cells with DNA fragmentation” value in assay [5] (11 μM) amounted to 7.0%; in assay [5] (22 μM), 40.3%. Also, the entries for the “cells in initial apoptosis [Annexin V(+) and 7-AAD(−)]” value in assay [6] (11 μM) and in assay [6] (22 μM) were 5.4% and 4.7%, respectively. Moreover, the “cells in late apoptosis [Annexin V(+) and 7-AAD(+)]” value turned out to be 8.3% in assay [6] (11 μM) and 12.5% in assay [6] (22 μM). Besides, the “dead cells [Annexin V(−) and 7-AAD (+)]” value in assay [6] (11 μM) is given as 9.1%; in assay [6] (22 μM), approximately 50%.

Consider `NC(=O)N/N=C/c1c(O)ccc2ccccc12` [Compound 3c, 2-Hydroxynaphthaldehyde Semicarbazone], for which the IC50 in assay [1] is 0.29 µM; in assay [2], 13.1 to 56.3 µM; in assay [4] it was 5.1 µM; in assay [7], 82 ± 1.63 µM. The figures for the depolarized cells in assay [3] (13 μM) and in assay [3] (26 μM) were 30.9% and 34.2%, respectively. Moreover, the “cells with DNA fragmentation” value is 3.2% in assay [5] (13 μM) and 7.5% in assay [5] (26 μM). For the same compound, the “cells in initial apoptosis [Annexin V(+) and 7-AAD(−)]” value turned out to be 16.7% in assay [6] (13 μM) and 27.2% in assay [6] (26 μM). Moreover, the entries for the “cells in late apoptosis [Annexin V(+) and 7-AAD(+)]” value in assay [6] (13 μM) and in assay [6] (26 μM) were 7.4% and 18.1%, respectively. In assay [6] (highest concentration tested (26 μM)), the “cells in apoptosis (annexin V assay)” value is “approximately 50%”.

As to `Cc1ccc(C=NNC(N)=O)cc1` [Compound 3g, 4-Methylbenzaldehyde Semicarbazone], the IC50 in assay [1] is more than 10 µM; in assay [4], more than 10 µM; in assay [7] it was more than 100 µM.
